Assay results as given in patent publication US20060069132A1, “Azolecarboxamide herbicides” (priority 2004, published 2006).

Key:
blackgrass = test: Test B postemergence herbicide test; type: in vivo, Alopecurus myosuroides; conditions: postemergence, visual rating, scale 0 (no effect) to 100 (complete control)
How it was run: (§1)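 Plants grow to 1- to 4-leaf stage (2–18 cm) for postemergence spraying, or to 2-leaf stage for the paddy test. Formulated compound is applied. Greenhouse holding lasts 13–15 days. Response is scored visually relative to controls, 0 no effect to 100 complete control; a dash means no result.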

lambsquarters = test: Test B pre-/postemergence herbicide test; type: in vivo, Chenopodium album; conditions: for Plant response rating, Lambsquarters: preemergence; for Lambsquarters plant response rating: postemergence, visual rating, scale 0 (no effect) to 100 (complete control)
How it was run: (§2)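 Visual rating, 0 (no effect) to 100 (complete control), versus untreated controls after 13–15 d in greenhouse. Pre- and postemergence applications (postemergence plants 2–18 cm, 1–4 leaves); flooded paddy arm at 2-leaf stage. Compounds in non-phytotoxic solvent plus surfactant.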

redroot pigweed = test: Test A pre-/postemergence herbicide test; type: in vivo, Amaranthus retroflexus
How it was run: (§3)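 Visual injury scores on a 0–100 scale (100 = complete control) taken about ten days post-treatment in greenhouse against untreated controls; dash means no result. Treatments: preemergence soil spray and postemergence spray to runoff on one- to two-leaf plants 2 to 10 cm tall, surfactant-containing formulation.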

velvetleaf [1] = test: Test A pre-/postemergence herbicide test; type: in vivo, Abutilon theophrasti
How it was run: as §3

barnyardgrass [2] = test: Test B pre-/postemergence herbicide test; type: in vivo, Echinochloa crus-galli; conditions: for Plant response rating, Barnyardgrass: preemergence; for Barnyardgrass plant response rating: postemergence, visual rating, scale 0 (no effect) to 100 (complete control)
How it was run: (§4)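 Species tested were Echinochloa crus-galli, Ipomoea coccinea, Xanthium strumarium and Oryza sativa, treated both before emergence and at the 1- to 4-leaf stage; rice and barnyardgrass were also tested under flooding at 2 leaves. Greenhouse incubation lasted 13–15 days before visual 0–100 scoring.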

morningglory [3] = test: Test A pre-/postemergence herbicide test; type: in vivo, Ipomoea spp.
How it was run: as §3

corn = test: Test B pre-/postemergence herbicide test; type: in vivo, Zea mays; conditions: for Plant response rating, Corn: preemergence; for Corn plant response rating: postemergence, visual rating, scale 0 (no effect) to 100 (complete control)
How it was run: as §2

rice [4] = test: Test B pre-/postemergence herbicide test; type: in vivo, Oryza sativa; conditions: preemergence, 125 g ai/ha; 0 to 100 scale, 0 is no effect, 100 is complete control
How it was run: as §2

barnyardgrass [5] = test: Test A pre-/postemergence herbicide test; type: in vivo, Echinochloa crus-galli
How it was run: as §3

giant foxtail [6] = test: Test B pre-/postemergence herbicide test; type: in vivo, Setaria faberi; conditions: for Plant response rating, Foxtail, Giant: preemergence; for Foxtail, Giant plant response rating: postemergence, visual rating, scale 0 (no effect) to 100 (complete control)
How it was run: as §2

morningglory [7] = test: Test B pre-/postemergence herbicide test; type: in vivo, Ipomoea coccinea; conditions: for Plant response rating, Morningglory: preemergence; for Morningglory plant response rating: postemergence, visual rating, scale 0 (no effect) to 100 (complete control)
How it was run: as §4

large crabgrass [8] = test: Test A pre-/postemergence herbicide test; type: in vivo, Digitaria sanguinalis
How it was run: as §3

[9] = tested on: small flower umbrella sedge; test: Test B flooded paddy test; type: in vivo, Cyperus difformis; conditions: 1000 g ai/ha, visual rating, scale 0 to 100 (0 no effect, 100 complete control), 13 to 15 days
How it was run: as §1

large crabgrass [10] = test: Test B pre-/postemergence herbicide test; type: in vivo, Digitaria sanguinalis; conditions: for Plant response rating, Crabgrass, Large: preemergence; for Crabgrass, Large plant response rating: postemergence, visual rating, scale 0 (no effect) to 100 (complete control)
How it was run: as §2

velvetleaf [11] = test: Test B pre-/postemergence herbicide test; type: in vivo, Abutilon theophrasti; conditions: for Plant response rating, Velvetleaf: preemergence; for Velvetleaf plant response rating: postemergence, visual rating, scale 0 (no effect) to 100 (complete control)
How it was run: as §2

wheat = test: Test B postemergence herbicide test; type: in vivo, Triticum aestivum; parameters: key to Wheat plant response rating: 0 = no effect, 100 = complete control; conditions: postemergence, visual rating, scale 0 (no effect) to 100 (complete control)
How it was run: as §1

Surinam grass = test: Test B pre-/postemergence herbicide test; type: in vivo, Urochloa decumbens; conditions: for Plant response rating, Surinam Grass: preemergence; for Surinam Grass plant response rating: postemergence, visual rating, scale 0 (no effect) to 100 (complete control)
How it was run: as §2

wild oat = test: Test B postemergence herbicide test; type: in vivo, Avena fatua; conditions: postemergence, visual rating, scale 0 (no effect) to 100 (complete control)
How it was run: as §1

cocklebur = test: Test B pre-/postemergence herbicide test; type: in vivo, Xanthium strumarium; conditions: for Plant response rating, Cocklebur: preemergence; for Cocklebur plant response rating: postemergence, visual rating, scale 0 (no effect) to 100 (complete control)
How it was run: as §4

pigweed = test: Test B pre-/postemergence herbicide test; type: in vivo, Amaranthus retroflexus; conditions: for Plant response rating, Pigweed: preemergence; for Pigweed plant response rating: postemergence, visual rating, scale 0 (no effect) to 100 (complete control)
How it was run: as §2

barnyardgrass [12] = test: Test B flooded paddy test; type: in vivo, Echinochloa crus-galli; conditions: 1000 g ai/ha, visual rating, scale 0 to 100 (0 no effect, 100 complete control), 13 to 15 days
How it was run: as §1

rice [13] = test: Test B flooded paddy test; type: in vivo, Oryza sativa; conditions: 1000 g ai/ha, visual rating, scale 0 to 100 (0 no effect, 100 complete control), 13 to 15 days
How it was run: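 Read-out: visual comparison with controls, scored 0 to 100, where 100 means complete control and 0 no effect. Formulated chemicals were applied postemergence to plants 2–18 cm tall (1- to 4-leaf), or to flooded-paddy plants at the 2-leaf stage, then held 13 to 15 days under glass.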

giant foxtail [14] = test: Test A pre-/postemergence herbicide test; type: in vivo, Setaria faberi
How it was run: as §3

ducksalad = test: Test B flooded paddy test; type: in vivo, Heteranthera limosa; conditions: 1000 g ai/ha, visual rating, scale 0 to 100 (0 no effect, 100 complete control), 13 to 15 days
How it was run: as §1

[15] = 500 g ai/ha, visual rating 0-100, 0 no effect, 100 complete control
[16] = 125 g ai/ha, 0 to 100 scale, 0 is no effect, 100 is complete control
[17] = Postemergence, 500 g ai/ha, 0 to 100 scale, 0 no effect, 100 complete control
[18] = Postemergence, 2000 g ai/ha, 0 to 100 scale, 0 no effect, 100 complete control
[19] = Preemergence, 2000 g ai/ha, visual rating, 0 to 100 scale (0 no effect, 100 complete control)
[20] = preemergence, 500 g ai/ha, visual injury, 0 to 100 scale (0 no effect, 100 complete control)
[21] = Preemergence, 500 g ai/ha, visual rating, 0 to 100 scale (0 no effect, 100 complete control)

CC(C)NS(=O)(=O)c1cccc(NC(=O)c2cc(C(C)(C)C)nn2C)c1 [Compound 124]
Blackgrass plant response rating (blackgrass; 125 g ai/ha): 0 | Blackgrass plant response rating (blackgrass; 500 g ai/ha): 0 | Plant response rating, Lambsquarters (lambsquarters; [15]): 80 | Lambsquarters plant response rating (lambsquarters; 125 g ai/ha): 30 | Lambsquarters plant response rating (lambsquarters; 500 g ai/ha): 70 | Plant response rating, Lambsquarters (lambsquarters; [16]): 0 | Pigweed plant response rating (redroot pigweed; [17]): 30 | Plant response rating, Pigweed (redroot pigweed; [18]): 40 | Pigweed plant response rating (redroot pigweed; [19]): 75 | Pigweed plant response rating (redroot pigweed; [20]): 20 | Velvetleaf plant response rating (velvetleaf [1]; [17]): 10 | Plant response rating, Velvetleaf (velvetleaf [1]; [18]): 10 | Velvetleaf plant response rating (velvetleaf [1]; [19]): 15 | Velvetleaf plant response rating (velvetleaf [1]; [20]): 0 | Plant response rating, Barnyardgrass (barnyardgrass [2]; [15]): 10 | Barnyardgrass plant response rating (barnyardgrass [2]; 125 g ai/ha): 0 | Barnyardgrass plant response rating (barnyardgrass [2]; 500 g ai/ha): 0 | Plant response rating, Barnyardgrass (barnyardgrass [2]; [16]): 0 | Morningglory plant response rating (morningglory [3]; [17]): 5 | Plant response rating, Morningglory (morningglory [3]; [18]): 0 | Morningglory plant response rating (morningglory [3]; [21]): 5 | Morningglory plant response rating (morningglory [3]; [19]): 15 | Plant response rating, Corn (corn; [15]): 0 | Corn plant response rating (corn; 125 g ai/ha): 0 | Corn plant response rating (corn; 500 g ai/ha): 10 | Plant response rating, Corn (corn; [16]): 0 | Plant response rating, Rice (rice [4]): 0 | Barnyardgrass plant response rating (barnyardgrass [5]; [17]): 0 | Plant response rating, Barnyardgrass (barnyardgrass [5]; [18]): 0 | Barnyardgrass plant response rating (barnyardgrass [5]; [21]): 0 | Barnyardgrass plant response rating (barnyardgrass [5]; [19]): 10 | Plant response rating, Foxtail, Giant (giant foxtail [6]; [15]): 10 | Foxtail, Giant plant response rating (giant foxtail [6]; 125 g ai/ha): 0 | Foxtail, Giant plant response rating (giant foxtail [6]; 500 g ai/ha): 10 | Plant response rating, Foxtail, Giant (giant foxtail [6]; [16]): 0 | Plant response rating, Morningglory (morningglory [7]; [15]): 0 | Morningglory plant response rating (morningglory [7]; 125 g ai/ha): 0 | Morningglory plant response rating (morningglory [7]; 500 g ai/ha): 10 | Plant response rating, Morningglory (morningglory [7]; [16]): 0 | Crabgrass, Large plant response rating (large crabgrass [8]; [17]): 10 | Plant response rating, Crabgrass, Large (large crabgrass [8]; [18]): 10 | Crabgrass, Large plant response rating (large crabgrass [8]; [21]): 30 | Crabgrass, Large plant response rating (large crabgrass [8]; [19]): 15 | Sedge, Umbrella plant response rating [9]: 0 | Plant response rating, Crabgrass, Large (large crabgrass [10]; [15]): 0 | Crabgrass, Large plant response rating (large crabgrass [10]; 125 g ai/ha): 10 | Crabgrass, Large plant response rating (large crabgrass [10]; 500 g ai/ha): 10 | Plant response rating, Crabgrass, Large (large crabgrass [10]; [16]): 0 | Plant response rating, Velvetleaf (velvetleaf [11]; [15]): 0 | Velvetleaf plant response rating (velvetleaf [11]; 125 g ai/ha): 0 | Velvetleaf plant response rating (velvetleaf [11]; 500 g ai/ha): 10 | Plant response rating, Velvetleaf (velvetleaf [11]; [16]): 0 | Wheat plant response rating (wheat; 125 g ai/ha): 0 | Wheat plant response rating (wheat; 500 g ai/ha): 0 | Plant response rating, Surinam Grass (Surinam grass; [15]): 10 | Surinam Grass plant response rating (Surinam grass; 125 g ai/ha): 10 | Surinam Grass plant response rating (Surinam grass; 500 g ai/ha): 20 | Plant response rating, Surinam Grass (Surinam grass; [16]): 0 | Oat, Wild plant response rating (wild oat; 125 g ai/ha): 0 | Oat, Wild plant response rating (wild oat; 500 g ai/ha): 10 | Plant response rating, Cocklebur (cocklebur; [15]): 0 | Cocklebur plant response rating (cocklebur; 125 g ai/ha): 0 | Cocklebur plant response rating (cocklebur; 500 g ai/ha): 10 | Plant response rating, Cocklebur (cocklebur; [16]): 0 | Plant response rating, Pigweed (pigweed; [15]): 90 | Pigweed plant response rating (pigweed; 125 g ai/ha): 20 | Pigweed plant response rating (pigweed; 500 g ai/ha): 70 | Plant response rating, Pigweed (pigweed; [16]): 30 | Barnyardgrass plant response rating (barnyardgrass [12]): 0 | Rice plant response rating (rice [13]): 0 | Foxtail, Giant plant response rating (giant foxtail [14]; [17]): 0 | Plant response rating, Foxtail, Giant (giant foxtail [14]; [18]): 0 | Foxtail, Giant plant response rating (giant foxtail [14]; [21]): 0 | Foxtail, Giant plant response rating (giant foxtail [14]; [19]): 0 | Ducksalad plant response rating (ducksalad): 70
